ChEMBL document CHEMBL5678818, “Discovery of potent SOS1 inhibitors that block RAS activation via disruption of the RAS-SOS1 interaction” (Proc Natl Acad Sci U S A, 2019)

How the values were obtained:
[1] = biological target: Cyclin-dependent kinase 2 (Homo sapiens) (UniProt P24941); test: Inhibition of CDK2 (unknown origin) assessed as residual activity at 100 nM by KINOMEscan analysis relative to control
[2] = biological target: T1, Dual specificity protein kinase TTK (Homo sapiens) (UniProt P33981); test: Inhibition of TTK (unknown origin) assessed as residual activity at 100 nM by KINOMEscan analysis relative to control
T1 sequence (whole entry): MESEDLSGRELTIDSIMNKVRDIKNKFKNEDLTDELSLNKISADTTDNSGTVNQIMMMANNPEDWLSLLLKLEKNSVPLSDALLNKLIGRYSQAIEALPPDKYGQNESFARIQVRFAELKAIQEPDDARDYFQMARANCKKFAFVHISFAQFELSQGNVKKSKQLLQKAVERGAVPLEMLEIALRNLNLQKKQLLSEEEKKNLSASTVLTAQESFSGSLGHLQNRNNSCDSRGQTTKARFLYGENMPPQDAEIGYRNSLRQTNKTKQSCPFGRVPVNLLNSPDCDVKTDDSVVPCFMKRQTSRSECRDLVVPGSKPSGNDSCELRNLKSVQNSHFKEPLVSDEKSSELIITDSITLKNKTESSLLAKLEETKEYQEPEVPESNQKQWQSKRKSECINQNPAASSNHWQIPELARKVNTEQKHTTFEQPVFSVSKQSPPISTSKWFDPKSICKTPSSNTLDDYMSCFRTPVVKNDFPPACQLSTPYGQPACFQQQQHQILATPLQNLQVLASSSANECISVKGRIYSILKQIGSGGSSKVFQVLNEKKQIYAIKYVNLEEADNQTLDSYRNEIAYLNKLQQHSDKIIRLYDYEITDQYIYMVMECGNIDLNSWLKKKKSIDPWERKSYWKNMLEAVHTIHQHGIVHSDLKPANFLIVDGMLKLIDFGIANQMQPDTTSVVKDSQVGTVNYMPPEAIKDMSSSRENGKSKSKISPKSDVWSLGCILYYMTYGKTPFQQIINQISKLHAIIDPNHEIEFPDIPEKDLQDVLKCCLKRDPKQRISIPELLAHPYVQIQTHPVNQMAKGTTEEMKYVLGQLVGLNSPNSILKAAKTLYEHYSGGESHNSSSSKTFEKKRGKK

[3] = tested on: Epidermal growth factor receptor (Homo sapiens), P00533 [T790M]; test: Inhibition of EGFR T790M mutant (unknown origin) assessed as residual activity at 100 nM by KINOMEscan analysis relative to control
[4] = biological target: T2, Testis-specific serine/threonine-protein kinase 1 (Homo sapiens) (UniProt Q9BXA7); test: Inhibition of TSSK1B (unknown origin) assessed as residual activity at 100 nM by KINOMEscan analysis relative to control
T2 sequence (whole entry): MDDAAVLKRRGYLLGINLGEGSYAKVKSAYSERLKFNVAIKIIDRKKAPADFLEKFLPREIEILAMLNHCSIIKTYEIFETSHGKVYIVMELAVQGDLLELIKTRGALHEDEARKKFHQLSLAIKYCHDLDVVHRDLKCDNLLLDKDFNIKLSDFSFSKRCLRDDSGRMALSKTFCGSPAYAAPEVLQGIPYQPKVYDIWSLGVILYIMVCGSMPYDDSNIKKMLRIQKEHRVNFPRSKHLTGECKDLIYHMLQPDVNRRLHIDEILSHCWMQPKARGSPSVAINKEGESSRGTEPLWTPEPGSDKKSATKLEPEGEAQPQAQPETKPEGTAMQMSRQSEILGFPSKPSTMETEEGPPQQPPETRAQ

[5] = biological target: Tyrosine-protein kinase Fgr (Homo sapiens) (UniProt P09769); test: Inhibition of FGR (unknown origin) assessed as residual activity at 100 nM by KINOMEscan analysis relative to control
[6] = biological target: T3, NUAK family SNF1-like kinase 1 (Homo sapiens) (UniProt O60285); test: Inhibition of ARK5 (unknown origin) assessed as residual activity at 100 nM by KINOMEscan analysis relative to control
T3 sequence (whole entry): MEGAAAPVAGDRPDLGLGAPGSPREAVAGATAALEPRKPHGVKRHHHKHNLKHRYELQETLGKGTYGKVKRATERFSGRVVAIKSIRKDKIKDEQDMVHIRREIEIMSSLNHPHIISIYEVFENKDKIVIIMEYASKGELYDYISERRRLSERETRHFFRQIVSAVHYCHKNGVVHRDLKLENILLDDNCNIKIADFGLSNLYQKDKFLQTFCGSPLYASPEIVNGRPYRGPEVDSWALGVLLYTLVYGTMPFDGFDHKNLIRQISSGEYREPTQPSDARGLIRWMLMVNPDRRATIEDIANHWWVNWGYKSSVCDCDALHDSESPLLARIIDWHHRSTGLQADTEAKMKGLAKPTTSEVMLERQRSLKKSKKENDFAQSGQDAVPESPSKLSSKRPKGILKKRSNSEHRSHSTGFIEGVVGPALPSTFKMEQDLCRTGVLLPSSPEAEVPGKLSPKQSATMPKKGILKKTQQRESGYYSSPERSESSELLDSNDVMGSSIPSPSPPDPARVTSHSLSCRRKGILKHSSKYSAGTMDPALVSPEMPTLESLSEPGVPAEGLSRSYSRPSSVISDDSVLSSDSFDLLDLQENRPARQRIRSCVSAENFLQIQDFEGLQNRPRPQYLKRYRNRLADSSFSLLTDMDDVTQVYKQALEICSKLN

Chain of Tyrosine-protein kinase Fgr (Homo sapiens) (P09769 2-529 limits assumed): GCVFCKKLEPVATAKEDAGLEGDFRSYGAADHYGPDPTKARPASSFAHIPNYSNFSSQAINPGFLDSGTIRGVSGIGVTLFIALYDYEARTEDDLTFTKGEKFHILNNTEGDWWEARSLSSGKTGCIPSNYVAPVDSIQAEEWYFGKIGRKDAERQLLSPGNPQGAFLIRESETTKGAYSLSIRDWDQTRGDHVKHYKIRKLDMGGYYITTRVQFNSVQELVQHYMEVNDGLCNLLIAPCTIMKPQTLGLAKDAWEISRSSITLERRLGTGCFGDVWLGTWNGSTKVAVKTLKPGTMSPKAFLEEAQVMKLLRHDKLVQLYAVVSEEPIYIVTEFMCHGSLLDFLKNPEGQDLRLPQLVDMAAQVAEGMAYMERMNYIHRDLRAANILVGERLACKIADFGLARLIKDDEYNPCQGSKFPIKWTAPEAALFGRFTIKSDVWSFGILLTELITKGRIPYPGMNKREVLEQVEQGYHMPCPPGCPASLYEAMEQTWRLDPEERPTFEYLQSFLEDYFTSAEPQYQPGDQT

Compound `COc1cc2ncnc(N[C@H](C)c3cccc4ccccc34)c2cc1OC` has an Activity [1] of 100%, an Activity [2] of 95% and an Activity [3] of 96%. It also gave an Activity [4] of 84%, an Activity [5] of 81% and an Activity [6] of 87%.
